Converted amounts (≈) assume the structure as drawn. Like-named read-outs stand apart in the source and are kept apart here.
Legend:
Str. pyogenes A-9604 = experiment: MIC, tube dilution, Streptococcus pyogenes A9604; format: cell-based; settings: overnight 37° C., Nutrient Broth
From the text: (§1) Representative compounds of the present invention were subjected to in vitro antibiotic screening against a variety of microorganisms.

Proteus vulgaris A21559 = experiment: MIC, tube dilution, Proteus vulgaris A21559; format: cell-based; settings: Proteus vulgaris, A21559, Proteus vulgaris A21559; overnight 37° C.; read-out: Minimum Inhibitory Concentration (M.I.C.)
From the text: as §1

Str. pneumoniae A-9585 = experiment: MIC, tube dilution, Streptococcus pneumoniae A9585; format: cell-based; settings: overnight 37° C., Nutrient Broth
From the text: as §1

[1] = test system: Staph. aureus (Meth-Res) A-15097; experiment: MIC, tube dilution, Staphylococcus aureus A15097 (Meth-Res); format: cell-based; settings: Staph. aureus A15097 (Meth-Res); overnight 37° C.
From the text: as §1

Proteus rettgeri A21203 = experiment: MIC, tube dilution, Proteus rettgeri A21203; format: cell-based; settings: Providencia rettgeri, A21203, Proteus rettgeri A21203; overnight 37° C.; read-out: Minimum Inhibitory Concentration (M.I.C.)
From the text: as §1

E. coli A-15119 = experiment: MIC, tube dilution, Escherichia coli A15119; format: cell-based; settings: E. coli A15119; overnight 37° C.
From the text: as §1

[2] = test system: Klebsiella species A20468; experiment: MIC, tube dilution, Klebsiella species A20468; format: cell-based; settings: Klebsiella species (K. pneumoniae) A20468, overnight 37° C.
From the text: as §1

Pr. mirabilis A-9900 = experiment: MIC, tube dilution, Proteus mirabilis A9900; format: cell-based; settings: Proteus mirabilis, A9900, Proteus mirabilis A9900; overnight 37° C.; read-out: Minimum Inhibitory Concentration (M.I.C.)
From the text: as §1

[3] = test system: Staph. aureus A-9537 and 50% serum; experiment: MIC, tube dilution, Staph. aureus A9537 + 50% serum; format: cell-based, Staphylococcus aureus; settings: overnight 37° C.
From the text: as §1

E. coli A-20341-1 = experiment: MIC, tube dilution, Escherichia coli A20341-1; format: cell-based
From the text: as §1

K. pneumoniae A-15130 = experiment: MIC, tube dilution, Klebsiella pneumoniae A15130; format: cell-based; settings: K. pneumoniae A15130; overnight 37° C.
From the text: as §1

Ps. aeruginosa A-9843A = experiment: MIC, tube dilution, Pseudomonas aeruginosa A9843A; format: cell-based; settings: Pseudomonas aeruginosa A9843A; overnight 37° C.
From the text: as §1

[4] = Mouse blood levels after intramuscular administration; format: in vivo; settings: average of 6 mice, read-out: Mouse blood level
Procedure: Mouse blood levels after intramuscular administration of representative compounds of the present invention were determined and are reported in the table below.

Ser. marcescens A-20019 = experiment: MIC, tube dilution, Serratia marcescens A20019; format: cell-based; settings: Serratia marcescens, A20019, Serratia marcescens A20019; overnight 37° C.; read-out: Minimum Inhibitory Concentration (M.I.C.)
From the text: as §1

Staph. aureus A-9537 = experiment: MIC, tube dilution, Staphylococcus aureus A9537; format: cell-based; settings: overnight 37° C., Nutrient Broth
From the text: as §1

[5] = test system: Staph. aureus (Pen-Res) A-9606; experiment: MIC, tube dilution, Staphylococcus aureus A9606 (Pen-Res); format: cell-based; settings: Staphylococcus aureus, Staph. aureus A9606 (Pen-Res); overnight 37° C.; read-out: Minimum Inhibitory Concentration (M.I.C.)
From the text: as §1

Ent. cloacae A-9656 = experiment: MIC, tube dilution, Enterobacter cloacae A9656; format: cell-based; settings: Enterobacter cloacae A9656, overnight 37° C.
From the text: as §1

Pr. morganii A-15153 = experiment: MIC, tube dilution, Proteus morganii A15153; format: cell-based; settings: Morganella morganii, A15153, Proteus morganii A15153; overnight 37° C.; read-out: Minimum Inhibitory Concentration (M.I.C.)
From the text: as §1

Ps. aeruginosa A-21213 = experiment: MIC, tube dilution, Pseudomonas aeruginosa A21213; format: cell-based; settings: Pseudomonas aeruginosa, A21213, Pseudomonas aeruginosa A21213; overnight 37° C.; read-out: Minimum Inhibitory Concentration (M.I.C.)
From the text: as §1

Str. faecalis A-20688 = experiment: MIC, tube dilution, Streptococcus faecalis A20688; format: cell-based; settings: Enterococcus faecalis, A20688, Str. faecalis A20688; overnight 37° C.; read-out: Minimum Inhibitory Concentration (M.I.C.)
From the text: as §1

Ent. cloacae A-9659 = experiment: MIC, tube dilution, Enterobacter cloacae A9659; format: cell-based; settings: Enterobacter cloacae A9659; overnight 37° C.
From the text: as §1

S. aureus A9537 = experiment: In vivo protection of mice, lethal infection with S. aureus A9537; settings: Staphylococcus aureus, A9537, im, IM, 2 treatments, 1 × 10^6 organisms; read-out: PD50
Procedure: Representative compounds of the present invention were also tested in vivo in mice and their PD50 (dose of compound in mg/kg required to protect 50% of the treated mice against an otherwise lethal infection of a micro-organism) values determined with respect to the test organisms shown below.

[6] = test system: Providencia stuartii A21205; experiment: MIC, tube dilution, Providencia stuartii (Pr. rettgeri) A21205; format: cell-based; settings: Providencia stuartii, A21205, read-out: Minimum Inhibitory Concentration (M.I.C.)
From the text: as §1

[7] = read-out: Minimum Inhibitory Concentration (M.I.C.)

Work on `NCCCCCC1=C(C(=O)O)N2C(=O)C[C@H]2S1` [Example 87, 2-(5-Aminopentyl)-penem-3-carboxylic acid] yielded an MIC (Str. pyogenes A-9604; Streptococcus pyogenes, A9604, Str. pyogenes A9604, read-out: Minimum Inhibitory Concentration (M.I.C.)) of 0.008 µg/mL (≈ 0.0312 µM), an MIC (Proteus vulgaris A21559) of 16 µg/mL (≈ 62.4 µM) and an MIC (Str. pneumoniae A-9585; Streptococcus pneumoniae, A9585, Str. pneumoniae A9585, read-out: Minimum Inhibitory Concentration (M.I.C.)) of 0.008 µg/mL (≈ 0.0312 µM). For the same compound, the “Minimum Inhibitory Concentration (M.I.C.)” value [1] was 32 µg/mL, the MIC (Proteus rettgeri A21203) was 4 µg/mL (≈ 15.6 µM) and the “Minimum Inhibitory Concentration (M.I.C.)” value (E. coli A-15119) was 4 µg/mL. The MIC [2, 7] was > 125 µg/mL, the MIC (Pr. mirabilis A-9900) was 4 µg/mL (≈ 15.6 µM) and the MIC ([3]; Staphylococcus aureus, read-out: Minimum Inhibitory Concentration (M.I.C.)) was 0.13 µg/mL. The MIC (E. coli A-20341-1; Escherichia coli, A203411, E. coli A20341-1; overnight 37° C.; read-out: Minimum Inhibitory Concentration (M.I.C.)) was 16 µg/mL (≈ 62.4 µM), the “Minimum Inhibitory Concentration (M.I.C.)” value (K. pneumoniae A-15130) was 8 µg/mL and the “Minimum Inhibitory Concentration (M.I.C.)” value (Ps. aeruginosa A-9843A) was 32 µg/mL. It also gave a concentration at 10 min ([4]; 10 minutes after IM 40 mg/kg) of 50300 ng/mL, a concentration at 20 min ([4]; 20 minutes after IM 40 mg/kg) of 47300 ng/mL and a concentration at 0.5 h ([4]; 30 minutes after IM 40 mg/kg) of 34600 ng/mL. The concentration at 0.75 h ([4]; 45 minutes after IM 40 mg/kg) was 23300 ng/mL, the MIC (Ser. marcescens A-20019) was 2 µg/mL (≈ 7.8 µM) and the MIC (Staph. aureus A-9537; Staphylococcus aureus, A9537, Staph. aureus A9537, read-out: Minimum Inhibitory Concentration (M.I.C.)) was 0.016 µg/mL (≈ 0.0624 µM). The MIC [5] was 4 µg/mL (≈ 15.6 µM), the “Minimum Inhibitory Concentration (M.I.C.)” value (Ent. cloacae A-9656) was 8 µg/mL and the MIC (Pr. morganii A-15153) was 4 µg/mL (≈ 15.6 µM). The MIC (Ps. aeruginosa A-21213) was > 125 µg/mL, the MIC (Str. faecalis A-20688) was 8 µg/mL (≈ 31.2 µM) and the “Minimum Inhibitory Concentration (M.I.C.)” value (Ent. cloacae A-9659) was 16 µg/mL. It also gave an ED50 (S. aureus A9537) of 0.12 mg/kg.
With `CC1=C(C(=O)O)N2C(=O)C[C@H]2S1` [Preparation 4(-), (-)-2-Methylpenem-3-carboxylic Acid] the “Minimum Inhibitory Concentration (M.I.C.)” value (Str. pyogenes A-9604; Str. pyogenes A9604) was 8 µg/mL, the “Minimum Inhibitory Concentration (M.I.C.)” value (Str. pneumoniae A-9585; Str. pneumoniae A9585) was 8 µg/mL and the “Minimum Inhibitory Concentration (M.I.C.)” value [2] was > 125 µg/mL. The “Minimum Inhibitory Concentration (M.I.C.)” value [3] was > 63 µg/mL, the MIC (E. coli A-20341-1; Escherichia coli, A203411; E. coli A20341-1; overnight 37° C.; read-out: Minimum Inhibitory Concentration (M.I.C.)) was > 125 µg/mL and the “Minimum Inhibitory Concentration (M.I.C.)” value (Staph. aureus A-9537; Staph. aureus A9537) was 32 µg/mL. The MIC [6] was > 125 µg/mL and the MIC (Ent. cloacae A-9656; [7]) was > 125 µg/mL.

Reference: patent US4272437A, “Antibacterial agents, and 4-thio azetidinone intermediates” (priority 1979, dated 1981)
